Results published in ChEMBL document CHEMBL1201862, “PubChem BioAssay data set” (2004).
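Step 1: Grow cells in 96-well plates. Step 2: Expose to compound for 48 hours at 5 concentrations. Step 3: Interpolate endpoints linearly; if unreached, use highest concentration. GI50 marks 50% less growth.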 Calls of active or inactive are those of the source. No stated cut-off is given here; in the data, active = GI50 up to about 1.1 µM and inactive = higher.

Assays:
Experiment in all cases: NCI tumour cell line growth inhibition, 48 h
BT-549 = system: BT-549
PC-3 = system: PC-3
NCI-H226 = system: NCI-H226
SF-268 = system: SF-268
RPMI-8226 = system: RPMI-8226
HCC 2998 = system: HCC 2998
OVCAR-3 = system: OVCAR-3
HCT-15 = system: HCT-15
K562 = system: K562
Malme-3M = system: Malme-3M
Hs-578T = system: Hs-578T
HOP-92 = system: HOP-92
SK-MEL-2 = system: SK-MEL-2
HL-60 = system: HL-60
OVCAR-5 = system: OVCAR-5
HCT-116 = system: HCT-116
NCI-H522 = system: NCI-H522
COLO 205 = system: COLO 205
SNB-75 = system: SNB-75
MDA-MB-231 = system: MDA-MB-231

SMILES | GI50 (BT-549) | GI50 (PC-3) | GI50 (NCI-H226) | GI50 (SF-268) | GI50 (RPMI-8226) | GI50 (HCC 2998) | GI50 (OVCAR-3) | GI50 (HCT-15) [µM] | GI50 (K562) | GI50 (Malme-3M) | GI50 (Hs-578T) | GI50 (HOP-92) | GI50 (SK-MEL-2) | GI50 (HL-60) | GI50 (OVCAR-5) | GI50 (HCT-116) | GI50 (NCI-H522) | GI50 (COLO 205) | GI50 (SNB-75) | GI50 (MDA-MB-231)
CCCCNCCCNCCCNC(=O)c1csc(-c2csc(CCNC(=O)C(NC(=O)C(C)C(O)C(C)NC(=O)C(NC(=O)c3nc(C(CC(N)=O)NCC(N)C(N)=O)nc(N)c3C)C(OC3OC(CO)C(O)C(O)C3OC3OC(CO)C(O)C(OC(N)=O)C3O)c3c[nH]cn3)C(C)O)n2)n1 (stereo not given) | > 50 µM (inactive) | 23.6 µM (inactive) | 0.175 µM (active) | 0.253 µM (active) | > 50 µM (inactive) | 43.7 µM (inactive) | 2.86 µM (inactive) | 24.9 | 10.1 µM (inactive) | 0.294 µM (active) | 8.79 µM (inactive) | 0.0798 µM (active) | 2.25 µM (inactive) | 14.9 µM (inactive) | 2.3 µM (inactive) | 0.0998 µM (active) | 0.791 µM (active) | 9.44 µM (inactive) | 0.0589 µM (active) | 30.3 µM (inactive)
C[C@]12CC[C@H]3[C@@H](CC=C4C[C@@H](O)CC[C@@]43C)[C@@H]1C/C(=C\c1ccncc1)[C@@H]2O | 3.51 µM (inactive) | 19.1 µM (inactive) | 17.7 µM (inactive) | 21.2 µM (inactive) | 9.91 µM (inactive) | 31.8 µM (inactive) | 23.7 µM (inactive) | 20.9 | 15.8 µM (inactive) | 22.6 µM (inactive) | 39.3 µM (inactive) | 2 µM (inactive) | 21.1 µM (inactive) | 10.2 µM (inactive) | 32.7 µM (inactive) | 18.7 µM (inactive) | 16.3 µM (inactive) | 10.6 µM (inactive) | 27.1 µM (inactive) | 28.8 µM (inactive)
O=C1OC(c2ccc([N+](=O)[O-])cc2)=N/C1=C\c1ccc(O)cc1 | > 100 µM (inactive) | > 100 µM (inactive) | > 100 µM (inactive) | > 100 µM (inactive) | > 100 µM (inactive) | > 100 µM (inactive) | > 100 µM (inactive) | > 100 | > 100 µM (inactive) | > 100 µM (inactive) | > 100 µM (inactive) | > 100 µM (inactive) | > 100 µM (inactive) | > 100 µM (inactive) | > 100 µM (inactive) | > 100 µM (inactive) | > 100 µM (inactive) | > 100 µM (inactive) | > 100 µM (inactive) | > 100 µM (inactive)
Cc1c(C)c2c(c(N)c1C#N)C(=O)N(NC(=O)c1ccccc1)C2=O | > 100 µM (inactive) | > 100 µM (inactive) | > 100 µM (inactive) | > 100 µM (inactive) | > 100 µM (inactive) | > 100 µM (inactive) | > 100 µM (inactive) | > 100 | > 100 µM (inactive) | > 100 µM (inactive) | > 100 µM (inactive) | > 100 µM (inactive) | > 100 µM (inactive) | > 100 µM (inactive) | > 100 µM (inactive) | > 100 µM (inactive) | > 100 µM (inactive) | > 100 µM (inactive) | > 100 µM (inactive) | > 100 µM (inactive)
O=C(Nc1cccc(NC(=O)C(=O)C2CCC3=C(Sc4ccccc4N3)C2=O)n1)C(=O)C1CCC2=C(Sc3ccccc3N2)C1=O (stereo not given) | 79.6 µM (inactive) | 27.4 µM (inactive) | 26.5 µM (inactive) | 44.8 µM (inactive) | 40.2 µM (inactive) | 29.8 µM (inactive) | > 100 µM (inactive) | 30.7 | 43.7 µM (inactive) | > 100 µM (inactive) | 53 µM (inactive) | > 100 µM (inactive) | > 100 µM (inactive) | 39.5 µM (inactive) | > 100 µM (inactive) | 40.6 µM (inactive) | 74.6 µM (inactive) | 37.2 µM (inactive) | 9.68 µM (inactive) | > 100 µM (inactive)
Cc1ccc(S(=O)(=O)n2cc(C=O)c(-c3cn(S(=O)(=O)c4ccc(C)cc4)cc3-c3cn(S(=O)(=O)c4ccc(C)cc4)cc3C=O)c2)cc1 | 60.1 µM (inactive) | 27.5 µM (inactive) | 29.6 µM (inactive) | > 100 µM (inactive) | 8.36 µM (inactive) | > 100 µM (inactive) | 78.9 µM (inactive) | 55.7 | 24.3 µM (inactive) | 24.3 µM (inactive) | > 100 µM (inactive) | 45.4 µM (inactive) | 33.8 µM (inactive) | 25.4 µM (inactive) | 85.3 µM (inactive) | 28 µM (inactive) | 26.9 µM (inactive) | 75.2 µM (inactive) | 29.6 µM (inactive) | > 100 µM (inactive)
Fc1nc(Sc2ncnc3nc[nH]c23)nc(-c2c3ccccc3c3sc4ccccc4n23)n1 | > 100 µM (inactive) | > 100 µM (inactive) | > 100 µM (inactive) | 36.3 µM (inactive) | > 100 µM (inactive) | > 100 µM (inactive) | > 100 µM (inactive) | > 100 | > 100 µM (inactive) | > 100 µM (inactive) | > 100 µM (inactive) | > 100 µM (inactive) | > 100 µM (inactive) | > 100 µM (inactive) | > 100 µM (inactive) | > 100 µM (inactive) | > 100 µM (inactive) | > 100 µM (inactive) | > 100 µM (inactive) | > 100 µM (inactive)
O=c1oc2ccc3ccccc3c2cc1-c1cn2c(n1)sc1ccccc12 | > 100 µM (inactive) | > 100 µM (inactive) | > 100 µM (inactive) | > 100 µM (inactive) | > 100 µM (inactive) | > 100 µM (inactive) | > 100 µM (inactive) | > 100 | 2.69 µM (inactive) | > 100 µM (inactive) | > 100 µM (inactive) | 55.2 µM (inactive) | > 100 µM (inactive) | > 100 µM (inactive) | > 100 µM (inactive) | > 100 µM (inactive) | > 100 µM (inactive) | > 100 µM (inactive) | > 100 µM (inactive) | > 100 µM (inactive)
O=[N+]([O-])c1ccc2c(c1)c1nn2CCCCOc2nn(c3ccc([N+](=O)[O-])cc23)CCCCO1 | > 100 µM (inactive) | > 100 µM (inactive) | > 100 µM (inactive) | > 100 µM (inactive) | > 100 µM (inactive) | > 100 µM (inactive) | > 100 µM (inactive) | > 100 | > 100 µM (inactive) | > 100 µM (inactive) | > 100 µM (inactive) | > 100 µM (inactive) | > 100 µM (inactive) | > 100 µM (inactive) | > 100 µM (inactive) | > 100 µM (inactive) | > 100 µM (inactive) | > 100 µM (inactive) | > 100 µM (inactive) | > 100 µM (inactive)
O=[N+]([O-])/C(C(Cl)=C(Cl)Cl)=C(/Br)SCc1ccccc1 | 2 µM (inactive) | 2.79 µM (inactive) | 6.07 µM (inactive) | 2.52 µM (inactive) | 0.656 µM (active) | 7.21 µM (inactive) | 1.86 µM (inactive) | 2.07 | 0.467 µM (active) | 2.88 µM (inactive) | 11.7 µM (inactive) | 1.77 µM (inactive) | 4.42 µM (inactive) | 0.222 µM (active) | 5.71 µM (inactive) | 1.73 µM (inactive) | 1.71 µM (inactive) | 1.6 µM (inactive) | 2.56 µM (inactive) | 2.72 µM (inactive)
Nc1nc2[nH]cnc2c(=S)[nH]1 [THIOGUANINE] | 3.04 µM (inactive) | 1.92 µM (inactive) | 4.41 µM (inactive) | 1.09 µM (active) | 0.438 µM (active) | 0.957 µM (active) | 0.767 µM (active) | 1.08 | 0.385 µM (active) | 1.28 µM (inactive) | 6.28 µM (inactive) | 0.818 µM (active) | 1 µM (active) | 1.11 µM (active) | 0.692 µM (active) | 0.538 µM (active) | 0.895 µM (active) | 1.75 µM (inactive) | 1.48 µM (inactive) | 2.51 µM (inactive)
CC(C)(C)c1cc(/C=C(\C#N)C2=NCCO2)cc(C(C)(C)C)c1O | 3.43 µM (inactive) | 2.65 µM (inactive) | 5.4 µM (inactive) | 4.61 µM (inactive) | 1.86 µM (inactive) | 2.92 µM (inactive) | 2.17 µM (inactive) | 3.29 | 3.59 µM (inactive) | 7.26 µM (inactive) | 5.09 µM (inactive) | 4.06 µM (inactive) | 2.75 µM (inactive) | 2.12 µM (inactive) | 2.89 µM (inactive) | 3.07 µM (inactive) | 3.2 µM (inactive) | 1.91 µM (inactive) | 2.42 µM (inactive) | 3.14 µM (inactive)
Nc1nncs1 | 1940 µM (inactive) | 2610 µM (inactive) | 3480 µM (inactive) | 3950 µM (inactive) | 991 µM (inactive) | 2160 µM (inactive) | 2400 µM (inactive) | 853 | 1320 µM (inactive) | 3590 µM (inactive) | 1620 µM (inactive) | 2260 µM (inactive) | > 5000 µM (inactive) | 2080 µM (inactive) | 1870 µM (inactive) | 1500 µM (inactive) | 1210 µM (inactive) | 456 µM (inactive) | 1440 µM (inactive) | 2320 µM (inactive)
Cc1ccc(Nc2nc3ccccc3c(=O)n2N)cc1 | > 100 µM (inactive) | > 100 µM (inactive) | > 100 µM (inactive) | > 100 µM (inactive) | > 100 µM (inactive) | > 100 µM (inactive) | > 100 µM (inactive) | > 100 | > 100 µM (inactive) | > 100 µM (inactive) | > 100 µM (inactive) | > 100 µM (inactive) | > 100 µM (inactive) | > 100 µM (inactive) | > 100 µM (inactive) | > 100 µM (inactive) | > 100 µM (inactive) | > 100 µM (inactive) | 75 µM (inactive) | > 100 µM (inactive)
